ChEMBL document CHEMBL1201862, “PubChem BioAssay data set” (2004)
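Exposure lasted 48 hours, with cells grown in 96-well plates and compounds tested at five concentrations. GI50 marks 50% less growth.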 Active and inactive are the calls of the source. Rule as the data show it: active = GI50 up to about 1.1 µM and inactive = higher.

Experiments:
Assay in all cases: NCI tumour cell line growth inhibition, 48 h
[1] = test system: U-251
[2] = test system: OVCAR-5
[3] = test system: RXF 393
[4] = test system: NCI-H23
[5] = test system: MCF7
[6] = test system: NCI-H522
[7] = test system: OVCAR-3
[8] = test system: CAKI-1
[9] = test system: LOX IMVI
[10] = test system: SN12C
[11] = test system: IGROV-1
[12] = test system: SK-MEL-2
[13] = test system: MOLT-4
[14] = test system: OVCAR-4
[15] = test system: SF-268
[16] = test system: NCI/ADR-RES
[17] = test system: RPMI-8226
[18] = test system: EKVX
[19] = test system: HOP-62
[20] = test system: M14

| Structure (SMILES) | GI50 [1] | GI50 [2] | GI50 [3] | GI50 [4] | GI50 [5] | GI50 [6] | GI50 [7] | GI50 [8] | GI50 [9] | GI50 [10] | GI50 [11] | GI50 [12] | GI50 [13] | GI50 [14] | GI50 [15] | GI50 [16] | GI50 [17] | GI50 [18] | GI50 [19] | GI50 [20] |
| --- | --- | --- | --- | --- | --- | --- | --- | --- | --- | --- | --- | --- | --- | --- | --- | --- | --- | --- | --- | --- |
| COc1nc(-c2cn(S(=O)(=O)c3ccc(C)cc3)c3ccc(Br)cc23)cc(C(F)(F)F)c1C#N | 16.9 µM (inactive) | 61.5 µM (inactive) | 19.8 µM (inactive) | 18.8 µM (inactive) | 50.4 µM (inactive) | 47.9 µM (inactive) | 18 µM (inactive) | 45.2 µM (inactive) | 23.7 µM (inactive) | 45.1 µM (inactive) | 28.4 µM (inactive) | 65.6 µM (inactive) | 31.3 µM (inactive) | 41.4 µM (inactive) | 53.2 µM (inactive) | 71.8 µM (inactive) | 14.9 µM (inactive) | 40 µM (inactive) | – | – |
| O=[N+]([O-])c1cc2ncc(-c3ccccc3)c(O)c2cc1/C(Cl)=C/c1ccccc1 | 6.5 µM (inactive) | > 44.7 µM (inactive) | 8.17 µM (inactive) | 7.67 µM (inactive) | 5.02 µM (inactive) | 3.48 µM (inactive) | 2.59 µM (inactive) | 19.1 µM (inactive) | 6.93 µM (inactive) | 14.2 µM (inactive) | 5.83 µM (inactive) | 32.6 µM (inactive) | 6.85 µM (inactive) | 3.2 µM (inactive) | 3.62 µM (inactive) | 4.93 µM (inactive) | 2.39 µM (inactive) | 5.57 µM (inactive) | 16.3 µM (inactive) | – |
| COc1ccc(OC)c(C(=O)/C=C/c2cc(O)c(O)cc2F)c1 | 0.486 µM (active) | 13 µM (inactive) | 1.37 µM (inactive) | 0.535 µM (active) | 0.29 µM (active) | 0.272 µM (active) | 0.18 µM (active) | 4.71 µM (inactive) | 0.69 µM (active) | 0.417 µM (active) | 1.61 µM (inactive) | 1.02 µM (active) | 0.321 µM (active) | 2.29 µM (inactive) | 0.643 µM (active) | 0.412 µM (active) | 0.678 µM (active) | 8.04 µM (inactive) | 1.05 µM (active) | 0.638 µM (active) |
| CC(=O)/C=C/c1c[nH]c(=O)[nH]c1=O | 151 µM (inactive) | 303 µM (inactive) | 126 µM (inactive) | 257 µM (inactive) | 157 µM (inactive) | 94.4 µM (inactive) | 180 µM (inactive) | 74.3 µM (inactive) | 97.5 µM (inactive) | 142 µM (inactive) | 151 µM (inactive) | 197 µM (inactive) | 179 µM (inactive) | 508 µM (inactive) | 168 µM (inactive) | 151 µM (inactive) | 129 µM (inactive) | 239 µM (inactive) | 303 µM (inactive) | – |
| CC(C)(C)[Si](C)(C)OCCOCn1cc(F)c(=O)[nH]c1=O | > 100 µM (inactive) | > 100 µM (inactive) | > 100 µM (inactive) | > 100 µM (inactive) | > 100 µM (inactive) | > 100 µM (inactive) | > 100 µM (inactive) | > 100 µM (inactive) | > 100 µM (inactive) | > 100 µM (inactive) | > 100 µM (inactive) | > 100 µM (inactive) | > 100 µM (inactive) | > 100 µM (inactive) | > 100 µM (inactive) | > 100 µM (inactive) | > 100 µM (inactive) | > 100 µM (inactive) | > 100 µM (inactive) | > 100 µM (inactive) |
| NC(=O)NN=C(CS)CS | 21.6 µM (inactive) | 24.1 µM (inactive) | 40.2 µM (inactive) | 22.7 µM (inactive) | 24 µM (inactive) | 22.6 µM (inactive) | 23.3 µM (inactive) | 23.6 µM (inactive) | 15.7 µM (inactive) | 24.2 µM (inactive) | 39.1 µM (inactive) | 20.8 µM (inactive) | 23.7 µM (inactive) | 25.4 µM (inactive) | 34.8 µM (inactive) | 25.6 µM (inactive) | 46.1 µM (inactive) | 18.8 µM (inactive) | 0.492 µM (active) | – |
| O=C(NCCCCCCNC(=O)n1cc(F)c(=O)[nH]c1=O)NCCCOCCOCCCNC(=O)C(O)C(O)C(O)C(O)CO (stereo not given) | > 2.5 µM (inactive) | > 2.5 µM (inactive) | > 2.5 µM (inactive) | > 2.5 µM (inactive) | > 2.27 µM (inactive) | > 2.5 µM (inactive) | > 2.5 µM (inactive) | – | > 2.16 µM (inactive) | > 2.5 µM (inactive) | > 2.5 µM (inactive) | > 2.5 µM (inactive) | > 2.5 µM (inactive) | > 2.5 µM (inactive) | > 2.5 µM (inactive) | > 2.5 µM (inactive) | > 2.5 µM (inactive) | > 2.5 µM (inactive) | > 2.5 µM (inactive) | – |
| Nc1ncnc2c1sc1nc3ccccc3n12 | 53.1 µM (inactive) | > 93.3 µM (inactive) | 12.8 µM (inactive) | > 100 µM (inactive) | 23 µM (inactive) | > 43.2 µM (inactive) | > 100 µM (inactive) | 33.7 µM (inactive) | 4.13 µM (inactive) | > 100 µM (inactive) | 13.4 µM (inactive) | > 100 µM (inactive) | 11.8 µM (inactive) | > 100 µM (inactive) | 19.4 µM (inactive) | > 83 µM (inactive) | > 91.4 µM (inactive) | 35.1 µM (inactive) | > 70.1 µM (inactive) | > 84.1 µM (inactive) |
| O=C1CC(=O)N(c2ccccc2)N1/C(=C/c1ccccc1)c1ccccc1 | 14.3 µM (inactive) | 29.2 µM (inactive) | 16.7 µM (inactive) | 23.2 µM (inactive) | 21 µM (inactive) | – | 20.3 µM (inactive) | 17.3 µM (inactive) | 1.6 µM (inactive) | 20.5 µM (inactive) | 15.8 µM (inactive) | 23.7 µM (inactive) | 1.58 µM (inactive) | 20.5 µM (inactive) | 16.2 µM (inactive) | 25.5 µM (inactive) | 10.2 µM (inactive) | 37.6 µM (inactive) | 18.5 µM (inactive) | 19 µM (inactive) |
| Nc1c(Br)cc2c(c1Br)Cc1cc(Br)ccc1-2 | > 100 µM (inactive) | – | > 100 µM (inactive) | > 100 µM (inactive) | > 100 µM (inactive) | > 100 µM (inactive) | > 100 µM (inactive) | – | > 100 µM (inactive) | > 100 µM (inactive) | – | – | > 100 µM (inactive) | > 100 µM (inactive) | > 100 µM (inactive) | > 100 µM (inactive) | – | – | – | > 100 µM (inactive) |
| C[C@]12C[C@H](O)[C@H]3[C@@H](CCC4=CC(=O)CC[C@@]43C)[C@@H]1CC[C@@H]2c1csc(-c2ccccc2)n1 | 24.9 µM (inactive) | > 100 µM (inactive) | 72.4 µM (inactive) | 4.57 µM (inactive) | > 23 µM (inactive) | 4.16 µM (inactive) | > 22.4 µM (inactive) | 38.4 µM (inactive) | > 58.3 µM (inactive) | 59.7 µM (inactive) | > 68.5 µM (inactive) | > 34 µM (inactive) | 0.625 µM (active) | 23.2 µM (inactive) | > 53.8 µM (inactive) | 46.6 µM (inactive) | 3.56 µM (inactive) | 21 µM (inactive) | 9.53 µM (inactive) | > 92.7 µM (inactive) |
| CC(C)(Br)C(Br)CCC(C)(Br)C(Br)CO (stereo not given) | > 10 µM (inactive) | – | > 10 µM (inactive) | > 10 µM (inactive) | > 10 µM (inactive) | > 10 µM (inactive) | > 10 µM (inactive) | > 10 µM (inactive) | – | > 10 µM (inactive) | > 10 µM (inactive) | – | > 10 µM (inactive) | > 10 µM (inactive) | > 10 µM (inactive) | > 10 µM (inactive) | > 10 µM (inactive) | > 10 µM (inactive) | > 10 µM (inactive) | > 10 µM (inactive) |
| COc1ccccc1NC(=O)/C(Cc1nc2ccc([N+](=O)[O-])cc2nc1O)=N\NC(=O)C[N+](C)(C)C | > 100 µM (inactive) | > 100 µM (inactive) | > 100 µM (inactive) | > 100 µM (inactive) | 72.8 µM (inactive) | 28.3 µM (inactive) | 41.7 µM (inactive) | 70.3 µM (inactive) | > 100 µM (inactive) | > 100 µM (inactive) | 55.3 µM (inactive) | > 100 µM (inactive) | 16.1 µM (inactive) | > 100 µM (inactive) | > 100 µM (inactive) | 38.6 µM (inactive) | – | 78 µM (inactive) | > 100 µM (inactive) | 57.1 µM (inactive) |
| N/N=C1/C2CN3CCN(C2)CC1(c1ccc([N+](=O)[O-])cc1)C3 | > 100 µM (inactive) | > 100 µM (inactive) | > 100 µM (inactive) | > 100 µM (inactive) | > 100 µM (inactive) | > 100 µM (inactive) | > 100 µM (inactive) | > 100 µM (inactive) | > 100 µM (inactive) | > 100 µM (inactive) | > 100 µM (inactive) | > 100 µM (inactive) | > 100 µM (inactive) | > 100 µM (inactive) | > 100 µM (inactive) | > 100 µM (inactive) | > 100 µM (inactive) | > 100 µM (inactive) | > 100 µM (inactive) | – |
| O=C(/C=C/c1ccc(O)c(O)c1)O[C@H]1CCCC[C@@H]1OC(=O)/C=C/c1ccc(O)c(O)c1 | 14.8 µM (inactive) | 15.6 µM (inactive) | 10.5 µM (inactive) | 13.6 µM (inactive) | 19.2 µM (inactive) | 5.22 µM (inactive) | 5.51 µM (inactive) | 7.48 µM (inactive) | 3.45 µM (inactive) | 13.6 µM (inactive) | 4.9 µM (inactive) | 22.7 µM (inactive) | 3.85 µM (inactive) | 17.9 µM (inactive) | 11.6 µM (inactive) | 21.8 µM (inactive) | 9.18 µM (inactive) | 20.6 µM (inactive) | 9.77 µM (inactive) | 15.9 µM (inactive) |
